Measured values reported in patent US6329000A, “Extract of pine needle and the use thereof” (priority 1999, dated 2001).

Key:
blood-lipid = experiment: Hypolipidemic test in rabbits on high fat diet; type: in vivo, rabbit; details: positive control 0.3 g/kg/d
Method: Experimental animals: 60 Beijing white rabbits with big ears, all male with body weight of 1.5-2 kg.
Drugs and reagents: cholesterol (produced at Beijing Chemical Reagent Company). Propyl thiooxyuracil tablet (refers to PTV hereafter, produced in Germany, 50 mg each tablet), lard (prepared by ourselves). The extract powder from pine needle of the invention (refers to the power of pine needle hereafter). Inostitol hexanicotinate tablet (produced by the second Pharmaceutical Factory of Beijing, 0.2 each tablet). The kits of total cholesterol, triglyceride, high density lipoprotein, and low density lipoprotein (produced by Beijing Zhongsheng Biotechnical Company).
Methods: The white rabbits with big ears were divided into 5 groups at random after raised for 10 days with normal diet. 10 rabbits each group. The high fat diet was given after taking blood from the helicine veins of the fasting rabbits in the morning. Determined the blood-lipid of the blood samples. The high fat diet included cholesterol 2 g/kg (body weight)/d, lard 0.5 g/kg/d, PTV 12.5 mg/kg/d. In the forth group, gave […] of the powder of pine needle along with the high fat diet to the rabbits of (the prevention group). Took blood from the fasting rabbits again and determined their body weights after 15 days of high-fat diet. Then stopped the high-fat diet and changed it for normal diet: (1) blank control group: giving distilled water 10 ml each day with the gavage method; (2) positive control group: giving Inositol hexnicotinate tablets, 0.3 g/kg/d; (3) low dose group: giving the powder of pine needle, 0.25 g/kg/d; (4) prevention group: went on giving the powder of pine needle 0.75 g/kg/d, 30 days in all; (5) high dose group: giving the powder of pine needle, 1.5 g/kg/d. The powder was dissolve din 10 ml distilled water and gave it with gavage method once a day. Took blood from the fasting rabbits on the fifteenth day after the administration to determine the levels of blood-lipid. The levels of total cholestorol, triglyceride, high density lipoprotein and low density lipoprotein were examined by CHOO-PAP method, GPO-PAP method, PTA-Mg^2+ deposition method and PVS one-step deposition method, respectively. The instrument used was Hitachi, Model 750 automatic biochemical analyzer.

blood pressure = experiment: Clinical test of the composition to lower blood pressure; type: in vivo, human; details: 44 cases per group, 20 days
Method: All of them were diagnosed as hypertension according to the diagnostic standard of WHO. […] The patients of the control group were treated with Captopril. The patients of the control group were adults aged below 59, and their average age was 47±7.8. The patients stopped taking hypotensor a week before taking part in the test. […] If the blood pressure was not reduced to the normal scope, then a dose (0.5 g) was increased every 5 days. The crescendo every 5 days, and the maximal dose couldn't exceed 3 g each time and 3 times a day. The whole course of treatment was 20 days. 25 mg Captopril was given to the patients of the control group each time and three times a day. […] The crescendo every 5 days, and the maximal dose couldn't exceed 75 mg each time and three times a day. The whole course of treatment was 20 days too.
The blood pressure before treatment: All the patients stopped taking hypotensor a week before treatment. Then the blood pressure was measured once a day continuously for 5 days. Took the mean of the 5 values (non same day) as the blood pressure before treatment.
The blood pressure after treatment: Measured the blood pressure once a day after the treatment. Took the mean of the 5 values measured on the 16th, 17th, 18th, 19th, 20th day after the treatment as the blood pressure after the treatment. Examined the blood routine, the urine routine, the functions of liver, the renal function, the serum electrolyte (including K^+, Na^+, Cl^-), the blood-lipid, the blood sugar, the ECG of every day before and after the treatment.
The criteria of therapeutic effect:
As to the systolic hypertension, the systolic pressure was reduced more than 4 kpa. Ineffectiveness: The decrement of the blood pressure after the treatment didn't achieve the above standard.

Row | Structure (SMILES) | high density lipoprotein IR % (increasing rate) (blood-lipid) [%] | low density lipoprotein DR % (blood-lipid) [%] | total cholesterol DR % (decreasing rate) (blood-lipid) [%] | triglyceride DR % (blood-lipid) [%] | high density lipoprotein after treatment (blood-lipid; after HFD 0.83) | triglyceride after treatment (blood-lipid; after HFD 1.87) | low density lipoprotein after treatment (blood-lipid; after HFD 9.20) | total cholesterol after treatment (blood-lipid; after HFD 26.67) | Effectiveness (blood pressure) [case number] | ineffectiveness (blood pressure) [case number] | total effective rate (blood pressure) [%] | remarkable effectiveness (blood pressure; composition 1.5-3 g t.i.d., captopril 25-75 mg t.i.d.) [case number]
1 | O=C(O[C@H]1[C@H](OC(=O)c2cccnc2)[C@@H](OC(=O)c2cccnc2)[C@H](OC(=O)c2cccnc2)[C@@H](OC(=O)c2cccnc2)[C@H]1OC(=O)c1cccnc1)c1cccnc1 [Inositol hexanicotinate] | 8.90 | 37.38 | 28.20 | 16.03 | 0.74 | 1.64 | 5.71 | 19.48 |  |  |  | 
2 | C[C@H](CS)C(=O)N1CCC[C@H]1C(=O)O [captopril] |  |  |  |  |  |  |  |  | 10 | 8 | 82 | 26
